For series [1], the system named is methicillin-susceptible S. aureus (SH1000). The series is described as follows: microbe, parasite or virus in culture. It is filed as cell-based.
The test system of series [2] is community-acquired methicillin-resistant S. aureus (CA-MRSA; USA 300-0114). The series is described as follows: microbe, parasite or virus in culture. Type of series: cell-based.
For series [3], the system named is hospital-acquired methicillin-resistant S. aureus (HA-MRSA; ATCC 33591). Briefly: microbe, parasite or virus in culture. Type of series: cell-based.
In series [4] the test system is Enterococcus faecalis (OG1RF). The series is described as follows: microbe, parasite or virus in culture. Type of series: cell-based.
In series [5] the test system is Escherichia coli (MC4100). Briefly: microbe, parasite or virus in culture. It is filed as cell-based.
In series [6] the test system is Pseudomonas aeruginosa (PAO1). Briefly: microbe, parasite or virus in culture. It is filed as cell-based.
In series [7] the test system is A. baumannii strain ATCC 19606. Type of series: cell-based, Acinetobacter baumannii.
For series [8], the system named is A. baumannii pan-resistant clinical isolate, MRSN 17493. It is filed as cell-based, Acinetobacter baumannii.
For series [9], the system named is red blood cell (RBC).
Series [10] relates to red blood cell (RBC). Briefly: Red blood cell (RBC) lysis (Lysis20). Particulars: RBC lysis as proxy for toxicity.
Where [11] appears, read: SH1000, […] DMSO carrier at highest test concentration (250 μM).

Like-named read-outs stand apart in the source and are kept apart here. Bounds are passed on as bounds.

On to `CCCCCCCCCCC[n+]1ccc(CCCc2cc[n+](CCCCCCCCCCC)cc2)cc1` [2Pyr-11,11, reference compound], for which the MIC in series [1] (Staphylococcus aureus, MSSA, read-out: Minimum Inhibitory Concentration MSSA) was 1 µM; in series [2] (Staphylococcus aureus, read-out: Minimum Inhibitory Concentration CA-MRSA), 2 µM; in series [3] (Staphylococcus aureus, read-out: Minimum Inhibitory Concentration HA-MRSA), 2 µM; in series [4] (Enterococcus faecalis, read-out: Minimum Inhibitory Concentration E. faecalis), 8 µM; in [5] (Escherichia coli, read-out: Minimum Inhibitory Concentration E. coli), 2 µM; in series [6] (Pseudomonas aeruginosa, PAO1, read-out: Minimum Inhibitory Concentration Pa), 16 µM. Further, the MBEC in series [7] was found to be 1000 µM; in series [8], 500 µM. In [9], this compound came in with a Lys20 of 4 µM.
On to `CCCCCCCCCC[N+](C)(C)CCCCCCCCCC.[Cl-]` [DDAC], for which the MBEC in series [7] is 1000 µM; in [8], 500 µM.
On to `CCCCCCCCCCCCCC[P+](CC[P+](CCCCCCCCCCCCCC)(c1ccccc1)c1ccccc1)(CC[P+](CCCCCCCCCCCCCC)(c1ccccc1)c1ccccc1)c1ccccc1` [P2P2P-14,14,14, ((phenyl(tetradecyl)phosphoniodiyl)bis(ethane-2,1-diyl))bis(diphenyl(tetradecyl)phosphonium)], for which the “Minimum Inhibitory Concentration MSSA” value in series [1] (setting [11]) stood at 16 µM. The “Minimum Inhibitory Concentration CA-MRSA” value in series [2] (USA 300-0114) was 16 µM. The “Minimum Inhibitory Concentration HA-MRSA” value in series [3] (ATCC 33591) is 32 µM. Further, the “Minimum Inhibitory Concentration E. faecalis” value in series [4] (OG1RF) was determined as 250 µM. In addition, the “Minimum Inhibitory Concentration E. coli” value in [5] (MC4100) amounted to 250 µM. In addition, the “Minimum Inhibitory Concentration Pa” value in [6] (P. aeruginosa PAO1) is over 250 µM. For the same compound, the Lys20 in [10] came out at 1 µM.
Take “benzalkonium chloride [BAC, reference compound]”: the “Minimum Inhibitory Concentration MSSA” value in [1] worked out at 4 µM. Besides, the “Minimum Inhibitory Concentration CA-MRSA” value in [2] turned out to be 4 µM. Besides, the “Minimum Inhibitory Concentration HA-MRSA” value in [3] came out at 8 µM. For the same compound, the “Minimum Inhibitory Concentration E. faecalis” value in series [4] is 250 µM. Also, the “Minimum Inhibitory Concentration E. coli” value in series [5] amounted to 63 µM. For the same compound, the “Minimum Inhibitory Concentration Pa” value in series [6] came out at 250 µM. Moreover, the MBEC in series [7] and in series [8] was 2000 µM each time. The compound further yielded a Lys20 in series [9] of 16 µM.
As to octadecyltriphenylphosphonium [TPP-18], in [1] (setting [11]), the “Minimum Inhibitory Concentration MSSA” value turned out to be 4 µM. Further, the “Minimum Inhibitory Concentration CA-MRSA” value in series [2] (USA 300-0114) was 8 µM. The “Minimum Inhibitory Concentration HA-MRSA” value in series [3] (ATCC 33591) was 8 µM. In addition, in [4] (OG1RF), the “Minimum Inhibitory Concentration E. faecalis” value turned out to be 16 µM. In addition, the “Minimum Inhibitory Concentration E. coli” value in series [5] (MC4100) amounted to 125 µM. Further, the “Minimum Inhibitory Concentration Pa” value in [6] (P. aeruginosa PAO1) amounted to 125 µM. Further, the Lys20 in [10] came out at 4 µM.
